# Experimental data from PMC5218480 (PLoS ONE, 2017).
# Tested on: MV-4-11 cells
# Assay: Gene expression microarray analysis (Affymetrix PrimeView) and GSEA
# Type: cell-based, human
# Design: RFU PODN (11730768_x_at) / Fold change /veh PODN (11730768_x_at) / RFU LINC00158 (11744669_a_at) / Fold change /veh LINC00158 (11744669_a_at) / RFU DUSP10 (11751237_a_at) / Fold change /veh DUSP10 (11751237_a_at) / RFU ID3 (11757404_x_at) / Fold change /veh ID3 (11757404_x_at) / RFU PLEKHG5 (11737974_s_at) / Fold change /veh PLEKHG5 (11737974_s_at) / RFU LRRC4B (11730491_at) / Fold change /veh LRRC4B (11730491_at) / RFU GIMAP4 (11747438_a_at) / Fold change /veh GIMAP4 (11747438_a_at) / RFU KRT8 (11758183_x_at) / Fold change /veh KRT8 (11758183_x_at) / RFU CNN1 (11734310_a_at) / Fold change /veh CNN1 (11734310_a_at) / RFU VPS37D (11726825_at) / Fold change /veh VPS37D (11726825_at) / RFU C10orf10 (11716522_x_at) / Fold change /veh C10orf10 (11716522_x_at) / RFU KIR2DL2 /// KIR2DL4 /// KIR2DL5A /// KIR2DL5B /// KIR2DS1 /// KIR2DS2 /// KIR2DS3 /// KIR2DS4 /// KIR3DL3 /// KIR3DL3 /// KIR3DS1 (11738374_at) / Fold change /veh KIR2DL2 /// KIR2DL4 /// KIR2DL5A /// KIR2DL5B /// KIR2DS1 /// KIR2DS2 /// KIR2DS3 /// KIR2DS4 /// KIR3DL3 /// KIR3DL3 /// KIR3DS1 (11738374_at) / RFU C1QL1 (11718748_at) / Fold change /veh C1QL1 (11718748_at) / RFU TMPRSS4 (11747572_a_at) / Fold change /veh TMPRSS4 (11747572_a_at) / RFU HAMP (11756126_x_at) / Fold change /veh HAMP (11756126_x_at) / RFU RNFT2 (11725882_a_at) / Fold change /veh RNFT2 (11725882_a_at) / RFU NR4A2 (11747474_a_at) / Fold change /veh NR4A2 (11747474_a_at) / RFU ABCC12 (11746883_a_at) / Fold change /veh ABCC12 (11746883_a_at) / RFU TMEM136 (11760407_x_at) / Fold change /veh TMEM136 (11760407_x_at) / RFU CLDN22 /// WWC2 (11732394_at) / Fold change /veh CLDN22 /// WWC2 (11732394_at) / RFU HLA-DPB1 (11760878_x_at) / Fold change /veh HLA-DPB1 (11760878_x_at) / RFU SPINT1 (11716480_a_at) / Fold change /veh SPINT1 (11716480_a_at) / RFU GAP43 (11754022_s_at) / Fold change /veh GAP43 (11754022_s_at) / RFU A4GNT (11735810_at) / Fold change /veh A4GNT (11735810_at) / RFU PRB3 (11715151_x_at) / Fold change /veh PRB3 (11715151_x_at) / RFU TUBB4B (11761932_at) / Fold change /veh TUBB4B (11761932_at) / RFU CAPN14 (11732068_a_at) / Fold change /veh CAPN14 (11732068_a_at) / RFU TMCC2 (11721928_a_at) / Fold change /veh TMCC2 (11721928_a_at) / RFU IRGQ (11745062_a_at) / Fold change /veh IRGQ (11745062_a_at) / RFU FAM174B (11720279_a_at) / Fold change /veh FAM174B (11720279_a_at) / RFU TMPRSS4 (11748680_a_at) / Fold change /veh TMPRSS4 (11748680_a_at) / RFU FAM212B (11763350_a_at) / Fold change /veh FAM212B (11763350_a_at) / RFU PLEKHG5 (11743358_a_at) / Fold change /veh PLEKHG5 (11743358_a_at) / RFU ZSCAN30 (11745921_a_at) / Fold change /veh ZSCAN30 (11745921_a_at) / RFU CMKLR1 (11741424_a_at) / Fold change /veh CMKLR1 (11741424_a_at) / RFU LOC101060620 /// MAPK8IP1 (11723275_at) / Fold change /veh LOC101060620 /// MAPK8IP1 (11723275_at) / RFU SPTSSB (11747773_x_at) / Fold change /veh SPTSSB (11747773_x_at) / RFU PRSS12 (11739890_at) / Fold change /veh PRSS12 (11739890_at) / RFU BIN1 (11741810_x_at) / Fold change /veh BIN1 (11741810_x_at) / RFU WNT11 (11732464_a_at) / Fold change /veh WNT11 (11732464_a_at) / RFU C10orf10 (11716521_a_at) / Fold change /veh C10orf10 (11716521_a_at) / RFU C5orf56 (11738089_at) / Fold change /veh C5orf56 (11738089_at) / RFU CYB561 (11721691_x_at) / Fold change /veh CYB561 (11721691_x_at) / RFU ANKRD19P (11752326_a_at) / Fold change /veh ANKRD19P (11752326_a_at) / RFU OR2T12 /// OR2T33 /// OR2T8 (11738714_s_at) / Fold change /veh OR2T12 /// OR2T33 /// OR2T8 (11738714_s_at) / RFU VCAN (11748164_a_at) / Fold change /veh VCAN (11748164_a_at) / RFU JSRP1 (11732532_at) / Fold change /veh JSRP1 (11732532_at) / RFU KRTAP10-11 (11738290_x_at) / Fold change /veh KRTAP10-11 (11738290_x_at) / RFU MYO3A (11730013_a_at) / Fold change /veh MYO3A (11730013_a_at) / RFU EBF3 (11725865_a_at) / Fold change /veh EBF3 (11725865_a_at) / RFU CAMK2N1 (11719241_x_at) / Fold change /veh CAMK2N1 (11719241_x_at) / RFU C5orf56 (11738088_a_at) / Fold change /veh C5orf56 (11738088_a_at) / RFU OLFML3 (11715873_a_at) / Fold change /veh OLFML3 (11715873_a_at) / RFU LOC100653217 /// NTM (11731650_a_at) / Fold change /veh LOC100653217 /// NTM (11731650_a_at) / RFU MAPK11 (11762145_a_at) / Fold change /veh MAPK11 (11762145_a_at) / RFU FIZ1 (11724087_x_at) / Fold change /veh FIZ1 (11724087_x_at) / RFU OASL (11726364_x_at) / Fold change /veh OASL (11726364_x_at) / RFU SOX15 (11748057_x_at) / Fold change /veh SOX15 (11748057_x_at) / RFU CD79A (11719716_a_at) / Fold change /veh CD79A (11719716_a_at) / RFU HIST1H1D (11736915_at) / Fold change /veh HIST1H1D (11736915_at) / RFU CASKIN2 (11723855_a_at) / Fold change /veh CASKIN2 (11723855_a_at) / RFU LOC730098 (11760151_x_at) / Fold change /veh LOC730098 (11760151_x_at) / RFU OR4N2 (11742367_at) / Fold change /veh OR4N2 (11742367_at) / RFU PRRT2 (11749266_a_at) / Fold change /veh PRRT2 (11749266_a_at) / RFU SNX32 (11753110_a_at) / Fold change /veh SNX32 (11753110_a_at) / RFU CDHR5 (11726645_a_at) / Fold change /veh CDHR5 (11726645_a_at) / RFU RCAN1 (11760418_a_at) / Fold change /veh RCAN1 (11760418_a_at) / RFU FAM167A (11723789_a_at) / Fold change /veh FAM167A (11723789_a_at) / RFU FAM26E (11764081_at) / Fold change /veh FAM26E (11764081_at) / RFU ISYNA1 (11749810_s_at) / Fold change /veh ISYNA1 (11749810_s_at) / RFU ACY1 (11761880_at) / Fold change /veh ACY1 (11761880_at) / RFU 11764098_at / Fold change /veh 11764098_at / RFU SAMD14 (11745864_x_at) / Fold change /veh SAMD14 (11745864_x_at) / RFU NPB (11741838_a_at) / Fold change /veh NPB (11741838_a_at) / RFU TMPRSS6 (11731388_a_at) / Fold change /veh TMPRSS6 (11731388_a_at) / RFU KRTAP10-2 (11738614_at) / Fold change /veh KRTAP10-2 (11738614_at) / RFU ARHGAP8 /// PRR5-ARHGAP8 (11727945_x_at) / Fold change /veh ARHGAP8 /// PRR5-ARHGAP8 (11727945_x_at) / RFU KRTAP5-7 /// NADSYN1 (11734609_at) / Fold change /veh KRTAP5-7 /// NADSYN1 (11734609_at) / RFU RASL12 (11751679_a_at) / Fold change /veh RASL12 (11751679_a_at) / RFU CDKN2B (11736163_a_at) / Fold change /veh CDKN2B (11736163_a_at) / RFU PRF1 (11729649_at) / Fold change /veh PRF1 (11729649_at) / RFU, ZNF638 /// ZNF638-IT1 / Fold change vs veh, ZNF638 /// ZNF638-IT1 / RFU, PANK3 / Fold change vs veh, PANK3 / RFU, SH3YL1 / Fold change vs veh, SH3YL1 / RFU, ZEB2 / Fold change vs veh, ZEB2 / RFU, NRIP1 / Fold change vs veh, NRIP1 / RFU, PTTG1IP / Fold change vs veh, PTTG1IP / RFU, CAPN2 / Fold change vs veh, CAPN2 / RFU, MED14 / Fold change vs veh, MED14 / RFU, SNORA58 / Fold change vs veh, SNORA58 / RFU, C1orf63 / Fold change vs veh, C1orf63 / RFU, LRRFIP1 / Fold change vs veh, LRRFIP1 / RFU, NDUFAF7 / Fold change vs veh, NDUFAF7 / RFU, SLC12A2 / Fold change vs veh, SLC12A2 / RFU, IBTK / Fold change vs veh, IBTK / RFU, ESF1 / Fold change vs veh, ESF1 / Fold change vs veh, TMEM50B / RFU, TAOK1 / Fold change vs veh, TAOK1 / RFU, ACBD3 / Fold change vs veh, ACBD3 / RFU, TMA16 / Fold change vs veh, TMA16 / RFU, RWDD3 / Fold change vs veh, RWDD3 / RFU, BCAT1 / Fold change vs veh, BCAT1 / RFU, EDEM3 / Fold change vs veh, EDEM3 / RFU, TMEM33 / Fold change vs veh, TMEM33 / RFU, WDR75 / Fold change vs veh, WDR75 / RFU, AHCTF1 / Fold change vs veh, AHCTF1 / RFU, TFRC / Fold change vs veh, TFRC / RFU, ZDHHC17 / Fold change vs veh, ZDHHC17 / RFU, NOM1 / Fold change vs veh, NOM1 / RFU, ARL8B / Fold change vs veh, ARL8B / RFU, ZBTB11 / Fold change vs veh, ZBTB11 / RFU, TAMM41 / Fold change vs veh, TAMM41 / RFU, KIAA1704 /// LOC100996395 / Fold change vs veh, KIAA1704 /// LOC100996395 / RFU, ING1 / Fold change vs veh, ING1 / RFU, TRMT61B / Fold change vs veh, TRMT61B / RFU, FUBP3 / Fold change vs veh, FUBP3 / RFU, TP53 / Fold change vs veh, TP53 / RFU, TNKS2 / Fold change vs veh, TNKS2 / RFU, ZFP14 / Fold change vs veh, ZFP14 / RFU, ACTR2 / Fold change vs veh, ACTR2 / RFU, PPP3R1 / Fold change vs veh, PPP3R1 / RFU, PIK3R1 / Fold change vs veh, PIK3R1 / RFU, HNRNPA1 / Fold change vs veh, HNRNPA1 / RFU, RNF170 / Fold change vs veh, RNF170 / RFU, ZNF28 / Fold change vs veh, ZNF28 / RFU, RNGTT / Fold change vs veh, RNGTT / RFU, OGT / Fold change vs veh, OGT / RFU, BRD1 / Fold change vs veh, BRD1 / RFU, MARS / Fold change vs veh, MARS / RFU, ZNF655 / Fold change vs veh, ZNF655 / RFU, FAHD1 / Fold change vs veh, FAHD1 / RFU, BDP1 / Fold change vs veh, BDP1 / RFU, LRRCC1 / Fold change vs veh, LRRCC1 / RFU, ARID1A / Fold change vs veh, ARID1A / RFU, ZNF146 / Fold change vs veh, ZNF146 / RFU, ZNF330 / Fold change vs veh, ZNF330 / RFU, GPN3 / Fold change vs veh, GPN3 / RFU, C9orf123 / Fold change vs veh, C9orf123 / RFU, N4BP2L2 / Fold change vs veh, N4BP2L2 / RFU, ARFIP1 / Fold change vs veh, ARFIP1 / RFU, FAM179B / Fold change vs veh, FAM179B / RFU, BCL10 / Fold change vs veh, BCL10 / RFU, UHRF1BP1L / Fold change vs veh, UHRF1BP1L / RFU, BET1 / Fold change vs veh, BET1 / RFU, CNOT2 / Fold change vs veh, CNOT2 / RFU, ZNF268 / Fold change vs veh, ZNF268 / Fold change vs veh, ZNF507 / RFU, DGCR2 / Fold change vs veh, DGCR2 / RFU, WDSUB1 / Fold change vs veh, WDSUB1 / Fold change vs veh, HSP90B1 /// MIR3652 / RFU, ADSS / Fold change vs veh, ADSS / RFU, GK / Fold change vs veh, GK / RFU, ZNF148 / Fold change vs veh, ZNF148 / RFU, TAF9 / Fold change vs veh, TAF9 / RFU, SLC1A5 / Fold change vs veh, SLC1A5 / RFU, SLMO2 / Fold change vs veh, SLMO2 / RFU, ABCC4 / Fold change vs veh, ABCC4 / RFU, LOC101060439 /// RAP1B / Fold change vs veh, LOC101060439 /// RAP1B / RFU, RFX7 / Fold change vs veh, RFX7 / RFU, GTPBP10 / Fold change vs veh, GTPBP10 / RFU, CNEP1R1 / Fold change vs veh, CNEP1R1 / RFU, BIVM-ERCC5 /// ERCC5 / Fold change vs veh, BIVM-ERCC5 /// ERCC5 / RFU, ILF3 / Fold change vs veh, ILF3 / RFU 11762660_at / Fold change /veh 11762660_at / RFU VCAN (11757783_s_at) / Fold change /veh VCAN (11757783_s_at) / RFU DDX43 (11728927_at) / Fold change /veh DDX43 (11728927_at) / RFU KRT8 (11758188_x_at) / Fold change /veh KRT8 (11758188_x_at) / RFU NKD1 (11759106_at) / Fold change /veh NKD1 (11759106_at) / RFU SRD5A1 (11742802_a_at) / Fold change /veh SRD5A1 (11742802_a_at) / RFU TPSAB1 /// TPSB2 (11721975_s_at) / Fold change /veh TPSAB1 /// TPSB2 (11721975_s_at) / RFU GSTM3 (11746129_a_at) / Fold change /veh GSTM3 (11746129_a_at) / RFU IL23R (11737362_x_at) / Fold change /veh IL23R (11737362_x_at) / RFU TMEM51 (11727254_a_at) / Fold change /veh TMEM51 (11727254_a_at) / RFU PIWIL2 (11732686_x_at) / Fold change /veh PIWIL2 (11732686_x_at) / RFU ORM1 (11744905_x_at) / Fold change /veh ORM1 (11744905_x_at) / RFU CCDC152 (11743942_at) / Fold change /veh CCDC152 (11743942_at) / RFU ECM1 (11717891_a_at) / Fold change /veh ECM1 (11717891_a_at) / RFU IL23R (11748794_a_at) / Fold change /veh IL23R (11748794_a_at) / RFU TNFAIP8L3 (11732012_x_at) / Fold change /veh TNFAIP8L3 (11732012_x_at) / RFU MBOAT4 (11741988_at) / Fold change /veh MBOAT4 (11741988_at) / RFU 11764193_at / Fold change /veh 11764193_at / RFU TMEM53 (11763286_at) / Fold change /veh TMEM53 (11763286_at) / RFU MAGEB2 (11727129_at) / Fold change /veh MAGEB2 (11727129_at) / RFU TMEM200A (11744735_a_at) / Fold change /veh TMEM200A (11744735_a_at) / RFU CCDC152 (11751479_a_at) / Fold change /veh CCDC152 (11751479_a_at) / RFU FAM211A (11726209_a_at) / Fold change /veh FAM211A (11726209_a_at) / RFU RGS16 (11746705_a_at) / Fold change /veh RGS16 (11746705_a_at) / RFU VCAN (11755009_s_at) / Fold change /veh VCAN (11755009_s_at) / RFU RHOB (11743442_s_at) / Fold change /veh RHOB (11743442_s_at) / RFU RGS16 (11720943_a_at) / Fold change /veh RGS16 (11720943_a_at) / RFU RGS16 (11720944_at) / Fold change /veh RGS16 (11720944_at) / RFU, VPS4B / Fold change vs veh, VPS4B / RFU, CREB1 / Fold change vs veh, CREB1 / RFU, DNAJC13 / Fold change vs veh, DNAJC13 / RFU, GNAQ / Fold change vs veh, GNAQ / RFU, CDK5R1 / Fold change vs veh, CDK5R1 / RFU, ZRANB3 / Fold change vs veh, ZRANB3 / RFU, CUL4A / Fold change vs veh, CUL4A / RFU, CCNY / Fold change vs veh, CCNY / RFU, UFL1 / Fold change vs veh, UFL1 / RFU, COG3 / Fold change vs veh, COG3 / RFU, DIAPH2 / Fold change vs veh, DIAPH2 / RFU, SKA2 / Fold change vs veh, SKA2 / RFU, AFF3 / Fold change vs veh, AFF3 / RFU, LMF1 / Fold change vs veh, LMF1 / RFU, IPO11 / Fold change vs veh, IPO11 / RFU, DFFB / Fold change vs veh, DFFB / RFU, FOXP1 / Fold change vs veh, FOXP1 / RFU, CARD8 / Fold change vs veh, CARD8 / RFU, STRN3 / Fold change vs veh, STRN3 / RFU, ADK / Fold change vs veh, ADK / RFU, RASSF2 / Fold change vs veh, RASSF2 / RFU, WIPF1 / Fold change vs veh, WIPF1 / RFU, LARP1B / Fold change vs veh, LARP1B / RFU, RASA1 / Fold change vs veh, RASA1 / RFU, RB1 / Fold change vs veh, RB1 / RFU, PPFIA1 / Fold change vs veh, PPFIA1 / RFU, MAT2A / Fold change vs veh, MAT2A / RFU, CCT5 / Fold change vs veh, CCT5 / RFU, WDR92 / Fold change vs veh, WDR92 / RFU, CUX1 / Fold change vs veh, CUX1 / RFU, TTC7A / Fold change vs veh, TTC7A / RFU, TMEM135 / Fold change vs veh, TMEM135 / RFU, DEPTOR / Fold change vs veh, DEPTOR / RFU, CPM / Fold change vs veh, CPM / RFU, DNAJB6 / Fold change vs veh, DNAJB6 / RFU, CACNA2D3 / Fold change vs veh, CACNA2D3 / RFU, DTX4 / Fold change vs veh, DTX4 / RFU, TFCP2 / Fold change vs veh, TFCP2 / RFU, GMCL1 /// GMCL1P1 / Fold change vs veh, GMCL1 /// GMCL1P1 / RFU, AEBP2 / Fold change vs veh, AEBP2 / RFU, SNHG1 /// SNORD22 /// SNORD25 /// SNORD26 /// SNORD27 /// SNORD28 /// SNORD29 /// SNORD31 / Fold change vs veh, SNHG1 /// SNORD22 /// SNORD25 /// SNORD26 /// SNORD27 /// SNORD28 /// SNORD29 /// SNORD31 / Fold change (Aza/veh), C12orf56 (ProbeSet 11735607_a_at) / Fold change (ACY-1035/veh), C12orf56 (ProbeSet 11735607_a_at) / Fold change (Aza/veh), FGFR1OP (ProbeSet 11751329_s_at) / Fold change (ACY-1035/veh), FGFR1OP (ProbeSet 11751329_s_at) / Fold change (Aza/veh), VPS36 (ProbeSet 11739960_a_at) / Fold change (ACY-1035/veh), VPS36 (ProbeSet 11739960_a_at) / RFU SYPL1 (11715823_x_at) / Fold change /veh SYPL1 (11715823_x_at) / RFU IGFBP7 (11715501_s_at) / Fold change /veh IGFBP7 (11715501_s_at) / RFU REEP3 (11722064_at) / Fold change /veh REEP3 (11722064_at) / RFU IGLL1 (11728026_x_at) / Fold change /veh IGLL1 (11728026_x_at): dose or concentration left out as unconfirmed
# Conditions: ProbeSet 11758919_x_at; LIST D
smiles,measurement,value
Nc1ncn([C@@H]2O[C@H](CO)[C@@H](O)[C@H]2O)c(=O)n1 [azacitidine],"Fold change vs veh, TFCP2",0.71
